Experimental data from US11452709B2, “Compositions and methods for preventing and treating radiation-induced bystander effects caused by radiation or radiotherapy” (The Regents of the University of Colorado, priority 2017, dated 2022).
Where two headings read alike, the source gives them in different places.

Assays:
[1] = tested on: Phsp-4::gfp stress-response reporter; assay: Phsp-4::gfp stress response assay in unexposed posterior region after localized UV irradiation (LUI); assay type: in vivo, C. elegans; conditions: zcls4 L1 larvae treated with 1 mM compound for 48 h (FIG. 17)
CTSB protease = molecular target: T1, CTSB protease (Homo sapiens, UniProt P07858); assay: CTSB protease activity inhibition in vitro (z-Arg-Arg-AMC substrate); assay type: biochemical; conditions: for Inhibition rate (%) of the CTSB protease activity / inhibition at 1000 µM: 1 mM of each compound; for inhibition at 1000 µM: read-out: Inhibition rate (%) of the CTSB protease activity
T1 construct: purchased Sino Biological Inc. 10483-H08H-10

[2] = molecular target: T2, C. elegans CPR-4 protease (Caenorhabditis elegans, UniProt P43508); assay: CPR-4 protease activity inhibition in vitro (z-Arg-Arg-AMC substrate); assay type: biochemical; conditions: 1 mM of each compound; read-out: Inhibition rate(%) of the C. elegans CPR-4 protease activity
T2 construct: a cpr-4 cDNA fragment encoding residues 16-336 was PCR amplified from the full-length cpr-4 cDNA clone; GST (N, cleaved yes); made in house; host or cells: Escherichia coli BL21(DE3)
T2 sequence (P43508 81-335): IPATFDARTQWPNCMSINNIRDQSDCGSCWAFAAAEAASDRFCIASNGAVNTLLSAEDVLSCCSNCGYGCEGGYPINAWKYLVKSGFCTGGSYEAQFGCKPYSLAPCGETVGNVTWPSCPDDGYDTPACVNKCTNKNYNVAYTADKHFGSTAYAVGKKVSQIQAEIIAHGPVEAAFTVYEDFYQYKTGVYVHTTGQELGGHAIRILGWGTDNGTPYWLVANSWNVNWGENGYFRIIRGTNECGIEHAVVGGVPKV

[3] = tested on: germ cell corpses in ced-1(e1735) animals; assay: Germ cell corpse assay with recombinant proteins in liquid culture; assay type: in vivo, C. elegans; conditions: 2.8 μM tCPR-4 proteins or 0.27 μM rhCTSB, L4 larvae, 48 hours
Method: Growing C. elegans animals in 96-well plates. HB101 bacteria were mixed with 100 μL conditioned medium (0.1 μg/μL) or 100 μL S-Medium containing 2.8 μM of recombinant tCPR-4 proteins (wild-type or mutant) or 0.27 μM recombinant human cathepsin B in a 96-well plate. Approximately 60 L4 larvae were transferred into each well of the plate. After being cultured in liquid media for 48 hours, these animals were scored for the numbers of germ cell corpses and mitotic nuclei. Quantification of germ cell corpses. L4 animals were cultured in liquid media in a 96-well plate as described above. After 48 hours, they were transferred to NGM plates and allowed to recover for 1 hour at 20° C. The animals were then anesthetized by 20 mM NaN3, mounted onto 2% agar pad, and scored under Nomarski optics. For transgenic animals expressing CPR-4 in the pharynx, L4 animals were grown on NGM plates for 24 hours at 20° C. before they were scored for germ cell corpses. Only the posterior arms of intact gonads were scored. Blind tests were carried out in all germ cell corpse quantification experiments.

N2 animals = assay: Embryonic lethality assay in liquid media with purified proteins; assay type: in vivo, C. elegans; conditions: 2.8 μM tCPR-4 proteins or 0.27 μM rhCTSB, 48 hours
Method: Embryonic lethality and larval arrest assays. For embryonic lethality assays caused by direct irradiation, after irradiated with 100 J/m^2 UV or 500 Gy gamma ray, gravid adults were placed on NGM plates to lay eggs for 4 hours at 25° C. and then removed from the plates. For embryonic lethality assays in liquid media, L4 larvae were cultured in conditioned medium or S-Medium containing the purified proteins at 20° C. for 48 hours, transferred to fresh NGM plates from the liquid media, and allowed to lay eggs for 4 hours at 25° C., before the adult animals were removed. For embryonic lethality assays in transgenic animals expressing CPR-4 in the pharynx, transgenic gravid adults at 24 hours post L4 were placed on NGM plates to lay eggs for 4 hours at 25° C. and then removed from the plates.

[4] = Protease activity of recombinant proteins in vitro; assay type: biochemical; conditions: 2.8 μM tCPR-4 proteins, 0.27 μM rhCTSB; z-Arg-Arg-AMC
Method: Measurement of protease activity in vitro. The CPR-4 enzymatic assays were performed following the method described previously with some modifications. The cathepsin B-specific fluorogenic substrate, Z-Arg-Arg-7-amido-4-methylcoumarin hydrochloride (z-Arg-Arg-AMC; Peptanova, catalog number 88937-61-5), was dissolved in 2×reaction buffer, containing 25 mM Tris-HCl (pH 8.0), 100 mM NaCl, 10% (v/v) Glycerol, 0.8 mM Sodium Acetate (pH6.0), and 8 mM EDTA. For the assays, 10 μL of proteins (100 ng/μL) or 10 μL of conditioned medium (100 ng/μL) were incubated with 10 μL of 20 μM z-Arg-Arg-AMC at 25° C. for 10 minutes before measuring the […]. Enzymatic activities were determined as the mean velocities at 25° C. in a dual luminescence fluorometer EnVision (Perkin-Elmer) at an excitation wavelength of 380 nm and an emission wavelength of 460 nm, and expressed as relative intensity in kilo relative fluorescence unit (kRFU). Recombinant human cathepsin B (rhCTSB; Sino Biological Inc., catalog number 10483-H08H-10) was dissolved in a buffer recommended by the manufacturer [25 mM Tris-HCl (pH 8.0), 100 mM NaCl, 10% (v/v) glycerol, 5 mM DTT, and 0.1% Triton-X]. The buffer control unique to the CPR-4 proteins or the rhCTSB protein, or the sham-irradiated conditioned medium, was also measured using the same procedures. S-Medium was used in each experiment as the background control.

[5] = read-out: IC50 in inhibiting CTSB
[6] = read-out: IC50 in inhibiting the CTSB protease activity

For `CCCNC(=O)[C@H]1O[C@@H]1C(=O)N[C@H](C(=O)N1CCC[C@H]1C(=O)OC)[C@@H](C)CC` [CA074Me, CA074 methyl ester, reference compound], the “Bystander Phsp-4::gfp response in posterior unexposed regions after LUI at the head” value [1] was “abolished the bystander Phsp-4::gfp response”, the “Inhibition rate (%) of the CTSB protease activity” value (shortened to “Inhibition rate (%)”) (CTSB protease) was “best inhibitory effects” and the inhibition at 1000 µM (CTSB protease) was 88.1%. The IC50 (CTSB protease; [5]) was ≤ 20 nM and the IC50 (CTSB protease; [6]) was < 10 nM.

For `CC(C)C[C@H](NC(=O)[C@@H]1O[C@H]1C(=O)O)C(=O)NCCCCNC(=N)N` [E64, N—[N-(L-3-Trans-carboxirane-2-carbonyl)-L-leucyl]-agmatine, reference compound], the inhibition at 1000 µM [2] was 89.6%, the inhibition at 1000 µM (CTSB protease) was 92.1% and the IC50 (CTSB protease; [5]) was ≤ 20 nM. The IC50 (CTSB protease; [6]) was 20 nM.

For NH2-Arg-Leu-Ala-COOH—Se, the “Inhibition rate (%)” value (CTSB protease) was 86.93%.

For `O=c1cc(-c2ccc(O)cc2)oc2cc(O)cc(O)c12` [Apigenin, 5,7-Dihydroxy-2-(4-hydroxyphenyl)-4H-1-benzopyran-4-one], the “Inhibition rate (%)” value (CTSB protease) was 70.93% and the inhibition at 1000 µM (CTSB protease) was 65 to 85%.

With `O=c1cc(-c2ccccc2)oc2cc(O)c(O)c(O)c12` [Baicalein, 5,6,7-Trihydroxy-2-phenyl-chromen-4-one] the inhibition at 1000 µM [2] was 41.5%, the inhibition at 1000 µM (CTSB protease) was 65 to 85% and the IC50 (CTSB protease; [6]) was 870 nM.

In the case of `O=C(OC[C@H]1O[C@@H](OC(=O)c2cc(O)c(O)c(OC(=O)c3cc(O)c(O)c(O)c3)c2)[C@H](OC(=O)c2cc(O)c(O)c(OC(=O)c3cc(O)c(O)c(O)c3)c2)[C@@H](OC(=O)c2cc(O)c(O)c(OC(=O)c3cc(O)c(O)c(O)c3)c2)[C@@H]1OC(=O)c1cc(O)c(O)c(OC(=O)c2cc(O)c(O)c(O)c2)c1)c1cc(O)c(O)c(OC(=O)c2cc(O)c(O)c(O)c2)c1` [Tannic acid], the inhibition at 1000 µM (CTSB protease) is reported as 69.3%.

With `O=c1c(O)c(-c2ccc(O)c(O)c2)oc2cc(O)cc(O)c12` [Quercetin, 2-(3,4-dihydroxyphenyl)-3,5,7-trihydroxy-4H-chromen-4-one] the inhibition at 1000 µM [2] was 80.7%, the “Inhibition of the activity of CTSB (in words)” value (CTSB protease) was “inhibit the activity of CTSB” and the “Inhibition rate (%)” value (CTSB protease) was 82.42%. It also gave an inhibition at 1000 µM (CTSB protease) of 65 to 85% and an IC50 (CTSB protease; [6]) of 1870 nM.

For `Nc1nc2ncc(CNc3ccc(C(=O)N[C@@H](CCC(=O)O)C(=O)O)cc3)nc2c(=O)[nH]1` [Folic acid], the “Enhancement of the activity of the CTSB protease” value (CTSB protease) was “more than 4 folds” and the EC50 (CTSB protease; read-out: EC50 (activation of the CTSB protease)) was 1260 nM.

For `CCCNC(=O)[C@H]1O[C@@H]1C(=O)N[C@H](C(=O)N1CCC[C@H]1C(=O)O)[C@@H](C)CC` (relative stereo) [CA074, N-(1-3-trans-propylcarbamoyloxirane-2-carbonyl)-1-isoleucyl-1-proline, reference compound], the “Bystander Phsp-4::gfp response in posterior unexposed regions after LUI at the head” value [1] was “abolished the bystander Phsp-4::gfp response”, the “Inhibition rate (%)” value (CTSB protease) was “best inhibitory effects” and the inhibition at 1000 µM (CTSB protease) was 91.8%.

In the case of `O=c1c(O[C@@H]2O[C@H](CO)[C@@H](O)[C@H](O)[C@H]2O)c(-c2ccc(O)c(O)c2)oc2cc(O)cc(O)c12` [Isoquercitrin, 2-(3,4-Dihydroxyphenyl)-5,7-dihydroxy-3-[(2S,3R,4S,5S,6R)-3,4,5-trihydroxy-6-(hydroxymethyl)oxan-2-yl]oxychromen-4-one], the “Inhibition of the activity of CTSB (in words)” value (CTSB protease) is reported as “inhibit the activity of CTSB”, the “Inhibition rate (%)” value (CTSB protease) is reported as 68.98% and the inhibition at 1000 µM (CTSB protease) is reported as 65 to 85%.

B1: tCPR-4(N301A): tCPR-4 with mutation N301A changing a non-catalytic residue (protein, UniProt P43508 81-335, looked up, variant N301A)
Cathepsin B-like cysteine …: IPATFDARTQWPNCMSINNIRDQSDCGSCWAFAAAEAASDRFCIASNGAVNTLLSAEDVLSCCSNCGYGCEGGYPINAWKYLVKSGFCTGGSYEAQFGCKPYSLAPCGETVGNVTWPSCPDDGYDTPACVNKCTNKNYNVAYTADKHFGSTAYAVGKKVSQIQAEIIAHGPVEAAFTVYEDFYQYKTGVYVHTTGQELGGHAIRILGWGTDNGTPYWLVAASWNVNWGENGYFRIIRGTNECGIEHAVVGGVPKV
In the case of B1, the “Germ cell corpses in ced-1(e1735) animals” value (“Germ cell corpses” below) [3] is reported as “reduced germ cell corpses”, the “Embryonic lethality of treated N2 animals” value (“Embryonic lethality” for short) (N2 animals) is reported as “increased embryonic lethality” and the “Protease activity of recombinant protein” value [4] is reported as “did not affect tCPR-4 protease activity”.

B2: tCPR-4(H281A) (protein, UniProt P43508 81-335, looked up, variant H281A)
Cathepsin B-like cysteine …: IPATFDARTQWPNCMSINNIRDQSDCGSCWAFAAAEAASDRFCIASNGAVNTLLSAEDVLSCCSNCGYGCEGGYPINAWKYLVKSGFCTGGSYEAQFGCKPYSLAPCGETVGNVTWPSCPDDGYDTPACVNKCTNKNYNVAYTADKHFGSTAYAVGKKVSQIQAEIIAHGPVEAAFTVYEDFYQYKTGVYVHTTGQELGGAAIRILGWGTDNGTPYWLVANSWNVNWGENGYFRIIRGTNECGIEHAVVGGVPKV
In the case of B2, the “Germ cell corpses” value [3] is reported as “failed to do so”, the “Embryonic lethality” value (N2 animals) is reported as “failed to do so” and the “Protease activity of recombinant protein” value [4] is reported as “abolished the protease activity”.

B3: tCPR-4(C109A): tCPR-4 with mutation of the conserved catalytic Cysteine residue (protein, UniProt P43508 81-335, looked up, variant C109A)
Cathepsin B-like cysteine …: IPATFDARTQWPNCMSINNIRDQSDCGSAWAFAAAEAASDRFCIASNGAVNTLLSAEDVLSCCSNCGYGCEGGYPINAWKYLVKSGFCTGGSYEAQFGCKPYSLAPCGETVGNVTWPSCPDDGYDTPACVNKCTNKNYNVAYTADKHFGSTAYAVGKKVSQIQAEIIAHGPVEAAFTVYEDFYQYKTGVYVHTTGQELGGHAIRILGWGTDNGTPYWLVANSWNVNWGENGYFRIIRGTNECGIEHAVVGGVPKV
In the case of B3, the “Germ cell corpses” value [3] is reported as “failed to do so”, the “Embryonic lethality” value (N2 animals) is reported as “failed to do so” and the “Protease activity of recombinant protein” value [4] is reported as “abolished the protease activity”.
